Data from patent US11654149B2, “Calmodulin inhibitors for the treatment of ribosomal disorders and ribosomapathies” (CHILDREN'S MEDICAL CENTER CORPORATION, priority 2012, dated 2023).
“Also recorded” adds a separate entry of the source. Counter-ions that a name gives are not always drawn.

Assays:
[1] = system: rps29−/− zebrafish embryos; experiment: flk1 whole-mount in situ hybridization (intersegmental vessel staining) in rps29−/− embryo chemical screen; format: in vivo; conditions: rps29−/− embryos treated from bud to 23 hpf, flk1 ISH at 24 hpf
Description: Fish were maintained under approved laboratory conditions.
(§1) Whole-mount in situ hybridization (ISH) was performed as described (Thisse and Thisse, 2008). Antisense probes were synthesized from digested plasmid. O-Dianisidine was performed as described previously (Paffett-Lugassy and Zon, 2005).

[2] = system: ion channel currents (calcium, potassium and sodium channels); conditions: in vitro experiments and in animals; cited from earlier work
[3] = system: A549 cells; experiment: flow cytometry for annexin and propidium iodide in A549 cells; format: cell-based
Description: (§2) FIGS. 4A-4D show treatment with A-3 inhibits p53 and p21 nuclear localization upon rps19 knockdown.
(§3) A549 and CD34+ cells were infected with previously characterized lentiviral shRNA targeting RPS19 (Dutt et al., 2011). Unless otherwise noted, drugs were added one day post infection, and cells were collected for analysis 3-6 days post infection.

[4] = system: Human CD34+ cells; experiment: in vitro erythroid differentiation assay of CD34+ cells with RPS19 shRNA; format: cell-based; parameters: p21 mRNA: dose or concentration left out as unconfirmed; conditions: for rescue of CD71+ expression: day 10 of erythroid differentiation, flow cytometry
Description: as §3
(§4) As DBA is a hematopoietic disorder, the inventors next tested the effects of A-3 in CD34+ cells with RPS19 knockdown by siRNA. In an in vitro system that mimics the differentiation of erythrocytes in vivo, the inventors knocked down RPS19 using shRNA. Human CD34+ cells are expanded in culture for 4 days and then infected with RPS19 shRNA or luciferase control shRNA lentiviral construct, selected with puromycin for 2 days and on day 7, the media is replaced with media containing high EPO to initiate erythroid differentiation (FIG. 6A). When RPS19 is reduced during erythroid differentiation, p21 mRNA levels increased about 6-fold compared to luciferase-infected controls and the transferrin receptor, CD71+ and a marker that is first detected at the proerythroblast stage, glycophorin A (GPA), are reduced 40% and 50%, respectively (Dutt et al., 2011).

[5] = system: A549 cells; experiment: flow cytometry of p53 and p21 protein in A549 cells with RPS19 shRNA; format: cell-based; conditions: for p21 protein level / p53 protein level: A549, RPS19 shRNA, drug 24 hours post infection, analyzed 3-6 days post infection
Description: as §3
(§5) For flow cytometry based measurement of protein levels, cells were fixed in 2% paraformaldehyde for 15 minutes at 37° C., and methanol was added for overnight incubation at 4° C. Cells were incubated for one hour in 1:100 diluted p21 primary antibody (Cell Signaling 12D1) followed by one hour in conjugated secondary antibody and 1:50 diluted p53-conjugated antibody (Cell Signaling 1C12). Immunofluorescence staining was performed as previously described (Dutt et al., 2011).
The inventors next tested the effect of calmodulin inhibitors in A549 cells, where p53 is not mutated and is induced upon ribosomal protein knockdown (Fumagalli et al., 2009). A549 cells were infected with control or RPS19 shRNA and treated with A-3 or TFP 24 hours post infection. Cells were analyzed 3-6 days post infection. […] In addition, removal of drug leads to an increase in p21 levels within 24 hours (data not shown).

[6] = system: A549 cells; experiment: immunofluorescence staining for p53 and p21 nuclear localization in A549 cells with RPS19 knockdown; format: cell-based; conditions: for p53 nuclear staining intensity: p=0.00028 for A-3; for p53 nuclear accumulation: A549 cells
Description: as §3, §5
Immunofluorescence staining for p53 and p21 was performed on chemically treated cells (FIG. 4A). For 10-15 cells per condition, average nuclear and cytoplasmic intensity was determined using ImageJ.

[7] = system: A549 cells; experiment: cell cycle status by flow cytometry (propidium iodide) in A549 cells; format: cell-based
Description: as §2, §3

[8] = system: human T cells subjected to ionizing radiation; conditions: read-out: EC50, prevention of apoptosis; cited from earlier work
[9] = cited from earlier work
[10] = system: calmodulin dependent PDE1; conditions: cited from earlier work
[11] = system: rps29−/− zebrafish embryos; experiment: head morphology scoring in rps29−/− embryo chemical screen; conditions: 24 hpf
Description: Fish were maintained under approved laboratory conditions. Studies were performed on AB wildtype strains and hi2903, an insertional mutant in the first intron of ribosomal protein S29 (rps29). Embryos were subjected to chemicals diluted in E3. For screening, chemicals from ICCB Biomol Known Bioactive, Sigma, and Lopac libraries were tested at 1:300 dilutions from library stock. Compounds were tested in two independent experiments of 20 embryos each, so approximately 10 mutant embryos were scored per chemical. […] Nimodipine (Enzo) was diluted in DMSO and tested in doses from 1.5 to 20 μg/mL. SNAP (Cayman) was diluted in DMSO and tested in doses from 0.5 to 5 μg/mL. YS-035 (Sigma) was diluted in water and treated in doses from 0.8 to 8 μg/mL. Vinpocetine (Enzo) was diluted in ethanol and treated in doses from 0.3 to 3 μg/mL.
A screen was performed to identify chemicals that could rescue the endothelial and morphological defects of the rps29^−/− mutant embryo (FIG. 1A). Rps29^−/− fish were incrossed, and embryos were collected for treatment at bud stage (10 hpf). Embryos were treated from bud to 23 hpf with compounds of known bioactivity. After being scored for rescue of head morphology, embryos were fixed at 24 hpf for in situ hybridization of flk1 and rps29. Embryos without rps^29 staining (rps29^−/− mutants) were scored for rescue of flk1 intersegmental vessel staining.

[12] = system: rps29 mutant embryos; experiment: benzidine staining for hemoglobin levels in rps29 mutant embryos; format: in vivo, zebrafish; conditions: benzidine staining at 40 hpf
Description: Fish were maintained under approved laboratory conditions. […] .
as §1

[13] = system: CD34+ cells; experiment: p21 protein by FACS in CD34+ cells with RPS19 knockdown in erythroid proliferation media; format: cell-based, human
Description: as §3, §5
as §4, with “Human CD34+ cells are expanded in culture for 4 days and then infected with RPS19 shRNA or luciferase control shRNA lentiviral construct, selected with puromycin for 2 days and on day 7, the media is replaced with media containing high EPO to initiate erythroid differentiation (FIG. 6A).” left out

[14] = A549, RPS19 knockdown, ImageJ, 10-15 cells per condition

CC1(CN2CCC(n3c(=O)[nH]c4ccccc43)CC2)OCc2ccccc2-n2cccc21 (centres unmarked) [CGS-9343B, zaldaride maleate]
rescue of flk1 expression / vasculature defect [1]: rescued flk1 expression

CC(=O)N[C@@H](C(=O)O)C(C)(C)SN=O (racemic) [SNAP]
rescue of flk1 expression / vasculature defect [1]: rescued flk1 intersegmental vessel staining

Cl.NCCCCCCCCCCNS(=O)(=O)c1cccc2c(Cl)cccc12 [A-7]
rescue of flk1 expression / vasculature defect [1]: rescue the vasculature defect

CC(C)COCC(CN(Cc1ccccc1)c1ccccc1)N1CCCC1 (centres unmarked) [bepridil]
IC50 for these processes [2]: low micromolar range

CN1CCN(CCCN2c3ccccc3Sc3ccc(C(F)(F)F)cc32)CC1 [TFP, 10-[3-(4-methylpiperazin-1-yl)propyl]-2-(trifluoromethyl)-10H-phenothiazine]
annexin V positivity [3]: increased annexin V positivity | rescue of flk1 expression / vasculature defect [1]: rescued flk1 expression | rescue of blood cell differentiation [4]: can rescue blood cell differentiation | p21 mRNA ([4]; RPS19 shRNA, quantitative PCR): decreased p21 mRNA to control levels | rescue of CD71+ expression ([4]; RPS19 shRNA): rescue CD71+ expression | concentration restoring the percentage of CD71+ cells ([4]; erythroid cell population in vitro): 5 to 20 µM | p21 protein level [5]: statistically significant decrease; also recorded: decrease of p21 protein | p53 protein level [5]: still increased; also recorded: without a matching decrease of p53 | p53 nuclear staining intensity [6, 14]: same effect was seen | p53 nuclear accumulation [6]: reversed p53 nuclear accumulation | effect on RPS19 shRNA induced cell cycle arrest [7]: no obvious effect

NC(=O)c1ccc2[nH]c(-c3ccc(Oc4ccc(Cl)cc4)cc3)nc2c1 [BML-277]
rescue of CD71+ levels ([4]; inhibitor panel against individual calmodulin-dependent enzymes): rescued CD71+ levels | EC50 [8]: 3 to 7.6 µM | p53 nuclear accumulation [6]: prevented nuclear accumulation of p53

Cl.NCCCCCCNS(=O)(=O)c1cccc2ccccc12 [W-5]
rescue of flk1 expression / vasculature defect [1]: rescue the vasculature defect

OCCN1CCN(CCCN2c3ccccc3Sc3ccc(C(F)(F)F)cc32)CC1 [fluphenazine, 4-[3-[2-(trifluoromethyl)phenothiazin-10-yl]propyl]-1-piperazineethanol]
rescue of blood cell differentiation [4]: can rescue blood cell differentiation | rescue of CD71+ expression ([4]; RPS19 shRNA): rescue CD71+ expression

CCOC(=O)C1=C[C@]2(CC)CCCN3CCc4c(n1c1ccccc41)[C@@H]32 [Vinpocetine, ethyl apovincaminate]
rescue of flk1 expression / vasculature defect [1]: a hit in the screen

OCCN1CCN(CCCN2c3ccccc3Sc3ccc(Cl)cc32)CC1 [perphenazine, 4-[3-(2-Chloro-10H-phenothiazin-10-yl)propyl]-1-piperazineethanol]
oral bioavailability [9]: approximately 40% | rescue of blood cell differentiation [4]: can rescue blood cell differentiation

NCCNS(=O)(=O)c1cccc2c(Cl)cccc12 [A-3]
annexin V positivity [3]: increased annexin V positivity | rescue of flk1 expression / vasculature defect [1]: did not rescue the vasculature | p21 protein level [5]: statistically significant decrease; also recorded: decrease of p21 protein | p53 protein level [5]: still increased; also recorded: without a matching decrease of p53 | time of treatment until p21 protein levels begin to decrease ([5]; A549, shorter treatment windows (FIG. 3E-3F, timecourse of A-3 treatment)): ≤ 1.5 h | inhibition of calmodulin dependent PDE1 compared with other calmodulin-dependent enzymes [10]: less effective inhibitor | rescue of head morphology [11]: rescued the morphology | p53 nuclear staining intensity [6, 14]: decreased | p21 nuclear staining intensity ([6]; A549, RPS19 knockdown, ImageJ, 10-15 cells per condition, p=0.007 for A-3): decreased | p53 nuclear accumulation [6]: reversed p53 nuclear accumulation | rescue of hemoglobin levels [12]: rescue hemoglobin levels | concentration decreasing the levels of p21 in CD34+ cells ([13]; CD34+ cells in an erythroid cell population in vitro): 1 to 50 µM | p21 protein ([13]; CD34+ cells, RPS19 knockdown, erythroid proliferation media): decrease p21 protein | effect on RPS19 shRNA induced cell cycle arrest [7]: no obvious effect

COc1ccc(CCN(C)CCc2ccc(OC)c(OC)c2)cc1OC [YS-035]
rescue of flk1 expression / vasculature defect [1]: rescued the vasculature defect

Cl.NCCCCCCNS(=O)(=O)c1cccc2c(Cl)cccc12 [W-7, N-(6-Aminohexyl)-5-chloro-1-naphthalenesulfonamide hydrochloride]
rescue of flk1 expression / vasculature defect [1]: rescue flk1 expression | rescue of hemoglobin levels [12]: rescues hemoglobin levels
